Test results taken from ChEMBL document CHEMBL2396621, “Design, synthesis and biological evaluation of 2-mercapto-3-phenethylquinazoline bearing anilide fragments as potential antitumor agents: molecular docking study” (2013).

What was measured:
Type in all cases: functional
[1] = tested on: HCC 2998; assay: Cytotoxicity against human HCC2998 cells assessed as growth inhibition at 10 uM after 48 hrs by coulter counter analysis; details: HCC 2998, 48 h, read-out: GI
[2] = tested on: MCF7; assay: Cytotoxicity against human MCF7 cells assessed as growth inhibition at 10 uM after 48 hrs by coulter counter analysis; details: MCF7, 48 h, read-out: GI
[3] = tested on: SF-295; assay: Cytotoxicity against human SF295 cells assessed as growth inhibition at 10 uM after 48 hrs by coulter counter analysis; details: SF-295, 48 h, read-out: GI
[4] = Cytotoxicity against human breast cancer cells after 48 hrs by coulter counter analysis; details: Cancer cell lines
[5] = tested on: OVCAR-3; assay: Cytotoxicity against human OVCAR3 cells assessed as growth inhibition at 10 uM after 48 hrs by coulter counter analysis; details: OVCAR-3, 48 h, read-out: GI
[6] = tested on: NCI-H522; assay: Cytotoxicity against human NCI-H522 cells assessed as growth inhibition at 10 uM after 48 hrs by coulter counter analysis; details: NCI-H522, 48 h, read-out: GI
[7] = Cytotoxicity against human colon cancer cells after 48 hrs by coulter counter analysis; details: Cancer cell lines
[8] = tested on: TK-10; assay: Cytotoxicity against human TK10 cells assessed as growth inhibition at 10 uM after 48 hrs by coulter counter analysis; details: TK-10, 48 h, read-out: GI
[9] = tested on: SW-620; assay: Cytotoxicity against human SW620 cells assessed as growth inhibition at 10 uM after 48 hrs by coulter counter analysis; details: SW-620, 48 h, read-out: GI
[10] = tested on: SF-268; assay: Cytotoxicity against human SF268 cells assessed as growth inhibition at 10 uM after 48 hrs by coulter counter analysis; details: SF-268, 48 h, read-out: GI
[11] = Cytotoxicity against human non-small cell lung cancer cells after 48 hrs by coulter counter analysis; details: Cancer cell lines
[12] = Cytotoxicity against human ovarian cancer cells after 48 hrs by coulter counter analysis; details: Cancer cell lines
[13] = tested on: ACHN; assay: Cytotoxicity against human ACHN cells assessed as growth inhibition at 10 uM after 48 hrs by coulter counter analysis; details: read-out: GI
[14] = Cytotoxicity against human melanoma cells after 48 hrs by coulter counter analysis; details: Melanoma cell
[15] = Cytotoxicity against human leukemia cells after 48 hrs by coulter counter analysis; details: Leukemia cell
[16] = Cytotoxicity against human renal cancer cells after 48 hrs by coulter counter analysis; details: Cancer cell lines
[17] = tested on: MDA-MB-231; assay: Cytotoxicity against human MDA-MB-231 cells assessed as growth inhibition at 10 uM after 48 hrs by coulter counter analysis; details: MDA-MB-231, 48 h, read-out: GI
[18] = Cytotoxicity against human NCI-ADR-RES cells assessed as growth inhibition at 10 uM after 48 hrs by coulter counter analysis; details: read-out: GI
[19] = tested on: HT-29; assay: Cytotoxicity against human HT-29 cells assessed as growth inhibition at 10 uM after 48 hrs by coulter counter analysis; details: HT-29, 48 h, read-out: GI
[20] = Cytotoxicity against human prostate cancer cells after 48 hrs by coulter counter analysis; details: Cancer cell lines
[21] = tested on: U-251; assay: Cytotoxicity against human U251 cells assessed as growth inhibition at 10 uM after 48 hrs by coulter counter analysis; details: U-251, 48 h, read-out: GI
[22] = tested on: HCT-15; assay: Cytotoxicity against human HCT15 cells assessed as growth inhibition at 10 uM after 48 hrs by coulter counter analysis; details: HCT-15, 48 h, read-out: GI
[23] = Cytotoxicity against human CNS cancer cells after 48 hrs by coulter counter analysis; details: Cancer cell lines
[24] = tested on: MOLT-4; assay: Cytotoxicity against human MOLT4 cells assessed as growth inhibition at 10 uM after 48 hrs by coulter counter analysis; details: MOLT-4, 48 h, read-out: GI
[25] = tested on: CAKI-1; assay: Cytotoxicity against human Caki1 cells assessed as growth inhibition at 10 uM after 48 hrs by coulter counter analysis; details: CAKI-1, 48 h, read-out: GI
[26] = tested on: HL-60(TB); assay: Cytotoxicity against human HL-60(TB) cells assessed as growth inhibition at 10 uM after 48 hrs by coulter counter analysis; details: HL-60, 48 h, read-out: GI
[27] = read-out: LC50 (the source's name)

Which results are given for `COc1cc(NC(=O)CSc2nc3ccccc3c(=O)n2CCc2ccccc2)cc(OC)c1OC`?
inhibition of growth at 10 µM [1]: 66%; inhibition of growth at 10 µM [2]: 49%; inhibition of growth at 10 µM [3]: 49%; GI50 [4]: 2.77 µM; TGI [4]: 44.1 µM; inhibition of growth at 10 µM [5]: > 100%; inhibition of growth at 10 µM [6]: > 100%; GI50 [7]: 2.02 µM; TGI [7]: > 100 µM; CC50 [7, 27]: > 100 µM; inhibition of growth at 10 µM [8]: > 100%; inhibition of growth at 10 µM [9]: 52%; inhibition of growth at 10 µM [10]: 87%; GI50 [11]: 2.04 µM; TGI [11]: 43.1 µM; CC50 [11, 27]: > 100 µM; GI50 [12]: 2.55 µM; TGI [12]: 52 µM; inhibition of growth at 10 µM [13]: > 100%; GI50 [14]: 3.3 µM; TGI [14]: 76.6 µM; GI50 [15]: > 100 µM; TGI [15]: > 100 µM; GI50 [16]: 1.77 µM; TGI [16]: 3.63 µM; inhibition of growth at 10 µM [17]: > 100%; inhibition of growth at 10 µM [18]: 64%; inhibition of growth at 10 µM [19]: 85%; GI50 [20]: 4.98 µM; TGI [20]: > 100 µM; CC50 [20, 27]: > 100 µM; inhibition of growth at 10 µM [21]: > 100%; inhibition of growth at 10 µM [22]: 11%; GI50 [23]: 2.73 µM; TGI [23]: 13.5 µM; CC50 [23, 27]: 75 µM

Which inhibition of growth at 10 µM [1] does the source give for `COc1cc(NC(=O)CCSc2nc3ccccc3c(=O)n2CCc2ccccc2)cc(OC)c1OC` here?
The inhibition of growth at 10 µM was less than 10%.

What about the inhibition of growth at 10 µM [2] of the same molecule?
Its inhibition of growth at 10 µM is 33%.

What about the inhibition of growth at 10 µM [3] of the same molecule?
The inhibition of growth at 10 µM was 10%.

And the inhibition of growth at 10 µM [5]?
Its inhibition of growth at 10 µM is 11%.

What about the inhibition of growth at 10 µM [6] of the same molecule?
The inhibition of growth at 10 µM was 52%.

What about the inhibition of growth at 10 µM [24] of the same molecule?
The inhibition of growth at 10 µM was 40%.

What about the inhibition of growth at 10 µM [8] of the same molecule?
Its inhibition of growth at 10 µM is 17%.

And the inhibition of growth at 10 µM [9]?
Its inhibition of growth at 10 µM is 14%.

What about the inhibition of growth at 10 µM [10] of the same molecule?
The inhibition of growth at 10 µM was 26%.

And the inhibition of growth at 10 µM [13]?
The inhibition of growth at 10 µM was 21%.

What about the inhibition of growth at 10 µM [17] of the same molecule?
The inhibition of growth at 10 µM was 66%.

What about the inhibition of growth at 10 µM [18] of the same molecule?
Its inhibition of growth at 10 µM is 13%.

What about the inhibition of growth at 10 µM [25] of the same molecule?
Its inhibition of growth at 10 µM is 74%.

What about the inhibition of growth at 10 µM [19] of the same molecule?
Its inhibition of growth at 10 µM is 18%.

And the inhibition of growth at 10 µM [21]?
Its inhibition of growth at 10 µM is 25%.

And the inhibition of growth at 10 µM [22]?
The inhibition of growth at 10 µM was 18%.

And the inhibition of growth at 10 µM [26]?
Its inhibition of growth at 10 µM is 27%.

Which inhibition of growth at 10 µM [1] does the source give for `Cc1ccc(NC(=O)CSc2nc3ccccc3c(=O)n2CCc2ccccc2)cc1` here?
Its inhibition of growth at 10 µM is less than 10%.

What about the inhibition of growth at 10 µM [2] of the same molecule?
Its inhibition of growth at 10 µM is 23%.

And the inhibition of growth at 10 µM [3]?
The inhibition of growth at 10 µM was 12%.

And the inhibition of growth at 10 µM [5]?
Its inhibition of growth at 10 µM is less than 10%.

What about the inhibition of growth at 10 µM [6] of the same molecule?
The inhibition of growth at 10 µM was 22%.

And the inhibition of growth at 10 µM [24]?
Its inhibition of growth at 10 µM is less than 10%.

What about the inhibition of growth at 10 µM [8] of the same molecule?
The inhibition of growth at 10 µM was less than 10%.

What about the inhibition of growth at 10 µM [9] of the same molecule?
Its inhibition of growth at 10 µM is 10%.

And the inhibition of growth at 10 µM [10]?
Its inhibition of growth at 10 µM is 19%.

And the inhibition of growth at 10 µM [13]?
Its inhibition of growth at 10 µM is 21%.

And the inhibition of growth at 10 µM [17]?
Its inhibition of growth at 10 µM is 23%.

What about the inhibition of growth at 10 µM [18] of the same molecule?
Its inhibition of growth at 10 µM is less than 10%.

What about the inhibition of growth at 10 µM [25] of the same molecule?
The inhibition of growth at 10 µM was 13%.

And the inhibition of growth at 10 µM [19]?
The inhibition of growth at 10 µM was less than 10%.

What about the inhibition of growth at 10 µM [21] of the same molecule?
Its inhibition of growth at 10 µM is 11%.

And the inhibition of growth at 10 µM [22]?
The inhibition of growth at 10 µM was 10%.

And the inhibition of growth at 10 µM [26]?
Its inhibition of growth at 10 µM is less than 10%.
